Drawing on ChEMBL document CHEMBL1909046, “DrugMatrix in vitro pharmacology data”, this text covers IC50 and Ki for 17 compounds.

In assay [1] the target is T1, Angiotensin-converting enzyme (Oryctolagus cuniculus, UniProt P12822).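 Also: enzymatic inhibition of angiotensin-converting enzyme measured with FAPGG as the substrate; in other assays of this panel Not Active means under 50% inhibition at 10 µM.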
T1 sequence (P12822 whole entry): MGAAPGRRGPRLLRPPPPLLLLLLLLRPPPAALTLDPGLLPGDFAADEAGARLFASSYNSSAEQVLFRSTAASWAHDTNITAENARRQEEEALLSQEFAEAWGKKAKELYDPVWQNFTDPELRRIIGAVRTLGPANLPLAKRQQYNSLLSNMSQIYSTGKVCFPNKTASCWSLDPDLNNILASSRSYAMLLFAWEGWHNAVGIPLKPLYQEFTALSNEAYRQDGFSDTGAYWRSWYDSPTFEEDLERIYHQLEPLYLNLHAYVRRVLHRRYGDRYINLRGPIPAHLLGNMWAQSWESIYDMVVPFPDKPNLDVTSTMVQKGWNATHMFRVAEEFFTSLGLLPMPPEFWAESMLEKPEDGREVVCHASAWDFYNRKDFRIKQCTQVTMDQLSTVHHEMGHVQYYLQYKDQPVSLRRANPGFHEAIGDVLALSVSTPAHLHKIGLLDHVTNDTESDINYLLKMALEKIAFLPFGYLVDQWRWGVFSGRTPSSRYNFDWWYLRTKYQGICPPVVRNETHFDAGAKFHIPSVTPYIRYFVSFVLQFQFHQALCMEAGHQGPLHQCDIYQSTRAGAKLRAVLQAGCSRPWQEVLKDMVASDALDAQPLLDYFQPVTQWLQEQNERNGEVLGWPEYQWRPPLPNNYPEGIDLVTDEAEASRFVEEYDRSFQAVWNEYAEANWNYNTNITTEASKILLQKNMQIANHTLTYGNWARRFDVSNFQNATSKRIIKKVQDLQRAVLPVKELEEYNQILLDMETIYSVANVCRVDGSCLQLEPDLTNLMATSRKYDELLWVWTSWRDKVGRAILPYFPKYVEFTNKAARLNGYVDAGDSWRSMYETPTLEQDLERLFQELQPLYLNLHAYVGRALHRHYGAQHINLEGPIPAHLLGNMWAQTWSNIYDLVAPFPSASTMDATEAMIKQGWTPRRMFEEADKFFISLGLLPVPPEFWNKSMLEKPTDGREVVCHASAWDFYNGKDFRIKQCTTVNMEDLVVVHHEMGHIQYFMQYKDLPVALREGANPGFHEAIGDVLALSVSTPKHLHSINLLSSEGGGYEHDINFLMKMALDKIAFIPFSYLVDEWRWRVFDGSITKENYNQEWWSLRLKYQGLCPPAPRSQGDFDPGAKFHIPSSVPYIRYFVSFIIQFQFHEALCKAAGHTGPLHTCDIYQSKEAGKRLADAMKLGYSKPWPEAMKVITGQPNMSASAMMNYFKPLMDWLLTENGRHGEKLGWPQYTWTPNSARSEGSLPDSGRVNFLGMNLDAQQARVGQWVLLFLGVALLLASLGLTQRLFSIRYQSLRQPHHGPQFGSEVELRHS
As to the kind of experiment: biochemical. In kind it is tissue-based, Lung.

For assay [2], the target named is T2, 3-hydroxy-3-methylglutaryl-coenzyme A reductase (Homo sapiens, UniProt P04035).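 Also: enzyme inhibition assay of HMG-CoA reductase using radiolabeled [14C]HMG-CoA as substrate; in other assays of this panel Not Active means under 50% inhibition at 10 µM.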
T2 sequence (P04035 whole entry): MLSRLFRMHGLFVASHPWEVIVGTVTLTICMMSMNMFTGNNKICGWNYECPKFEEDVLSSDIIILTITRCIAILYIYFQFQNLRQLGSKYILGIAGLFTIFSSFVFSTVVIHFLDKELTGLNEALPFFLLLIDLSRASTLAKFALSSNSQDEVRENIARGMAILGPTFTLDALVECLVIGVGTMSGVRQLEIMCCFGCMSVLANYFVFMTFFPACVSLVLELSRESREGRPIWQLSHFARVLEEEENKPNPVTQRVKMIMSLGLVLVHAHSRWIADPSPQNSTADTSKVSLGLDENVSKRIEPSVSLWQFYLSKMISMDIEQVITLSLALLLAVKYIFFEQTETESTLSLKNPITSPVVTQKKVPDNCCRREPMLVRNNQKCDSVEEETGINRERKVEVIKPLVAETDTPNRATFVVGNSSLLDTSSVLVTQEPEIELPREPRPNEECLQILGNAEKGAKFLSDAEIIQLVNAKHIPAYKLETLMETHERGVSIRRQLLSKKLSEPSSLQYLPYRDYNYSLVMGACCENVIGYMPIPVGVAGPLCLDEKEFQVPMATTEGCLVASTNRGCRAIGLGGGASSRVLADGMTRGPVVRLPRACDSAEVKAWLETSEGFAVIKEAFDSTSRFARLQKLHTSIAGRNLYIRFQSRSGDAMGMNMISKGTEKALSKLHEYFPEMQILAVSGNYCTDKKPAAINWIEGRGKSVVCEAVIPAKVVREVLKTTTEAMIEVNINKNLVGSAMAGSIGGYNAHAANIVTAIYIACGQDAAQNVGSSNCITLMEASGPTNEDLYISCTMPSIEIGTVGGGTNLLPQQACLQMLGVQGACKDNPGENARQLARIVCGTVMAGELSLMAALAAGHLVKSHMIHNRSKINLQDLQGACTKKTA
Details: species or system Escherichia coli. The conditions noted are these: for pIC50: read-out: IC50.

In assay [3] the target is Glycine receptor (Rattus norvegicus, UniProt P22771+P24524+P07727+P20781). In kind it is cell membranes, Wistar, Spinal cord, Membrane. Also: in other assays of this panel Not Active means under 50% inhibition at 10 µM.
Assay [4] has as its target T3, 5-hydroxytryptamine receptor 1A (Rattus norvegicus, UniProt P19327). Also: in other assays of this panel Not Active means under 50% inhibition at 10 µM.
T3 sequence (P19327 whole entry): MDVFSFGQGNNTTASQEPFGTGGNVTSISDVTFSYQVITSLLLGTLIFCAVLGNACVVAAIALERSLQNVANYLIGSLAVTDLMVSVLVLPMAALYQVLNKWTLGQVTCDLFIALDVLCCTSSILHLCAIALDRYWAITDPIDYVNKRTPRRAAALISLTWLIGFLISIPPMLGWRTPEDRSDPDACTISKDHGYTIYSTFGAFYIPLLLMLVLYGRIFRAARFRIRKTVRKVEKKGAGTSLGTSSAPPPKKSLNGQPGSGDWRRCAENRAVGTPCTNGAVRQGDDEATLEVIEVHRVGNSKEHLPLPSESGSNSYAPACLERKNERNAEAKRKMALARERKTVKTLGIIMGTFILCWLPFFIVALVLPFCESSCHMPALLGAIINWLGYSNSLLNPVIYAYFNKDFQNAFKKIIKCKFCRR
In kind it is cell membranes, CHO-K1, Membrane. The note with it: cho-k1.

Assay [5] can be described thus: DRUGMATRIX: Purinergic P2X radioligand binding (ligand: [3H] alpha, beta-Methylene-ATP). The conditions noted are these: Not Active = under 50% inhibition at 10 µM. In kind it is cell membranes, Oryctolagus cuniculus, New Zealand albino, Urinary bladder, Membrane.

pIC50: −log10 of the molar value.

For the compound `O=C1CC[C@@]2(O)[C@H]3Cc4ccc(O)c5c4[C@@]2(CCN3CC2CC2)[C@H]1O5` [NALTREXONE], the IC50 entry in assay [1], in assay [2], in assay [3], in assay [4] and in assay [5] was “Not Active” each time. The Ki result in assay [5] is “Not Active”.

As for `C=CCc1ccc2c(c1)OCO2` [SAFROLE], the IC50 result in assay [1], in assay [2], in assay [3], in assay [4] and in assay [5] was “Not Active” in each case. In assay [5], the Ki result is recorded as “Not Active”.

As to `O=[As][O-].[Na+]` [SODIUM ARSENITE], the IC50 result in assay [1], in assay [2], in assay [3], in assay [4] and in assay [5] was “Not Active” each time. Also, the Ki entry in assay [5] is listed as “Not Active”.

In the case of `Cc1cn([C@H]2C=C[C@@H](CO)O2)c(=O)[nH]c1=O` [STAVUDINE], the IC50 result in assay [1], in assay [2], in assay [3], in assay [4] and in assay [5] was “Not Active” each time. The Ki entry in assay [5] was “Not Active”.

Regarding `COC(=O)Nc1nc2ccc(C(=O)c3ccccc3)cc2[nH]1` [MEBENDAZOLE], the IC50 result in assay [1], in assay [2], in assay [3], in assay [4] and in assay [5] was “Not Active” each time. In assay [5], the Ki entry is “Not Active”.

A word on the pIC50: it is the negative decadic logarithm of the IC50, by convention in mol/L. Regarding `CC[C@H](C)C(=O)O[C@H]1CCC=C2C=C[C@H](C)[C@H](CC[C@@H]3C[C@@H](O)CC(=O)O3)[C@H]21` [MEVASTATIN], the IC50 entry in assay [1], in assay [3], in assay [4] and in assay [5] was “Not Active” each time. The pIC50 in assay [2] was 6.92. The Ki result in assay [5] is reported as “Not Active”.

In the case of `O=C(OC[C@H]1O[C@@H](OC(=O)c2cc(O)c(O)c(OC(=O)c3cc(O)c(O)c(O)c3)c2)[C@H](OC(=O)c2cc(O)c(O)c(OC(=O)c3cc(O)c(O)c(O)c3)c2)[C@@H](OC(=O)c2cc(O)c(O)c(OC(=O)c3cc(O)c(O)c(O)c3)c2)[C@@H]1OC(=O)c1cc(O)c(O)c(OC(=O)c2cc(O)c(O)c(O)c2)c1)c1cc(O)c(O)c(OC(=O)c2cc(O)c(O)c(O)c2)c1` [TANNIC ACID], the IC50 result in assay [1], in assay [3], in assay [4] and in assay [5] was “Not Active” throughout. In addition, the negative-log IC50 (pIC50) in assay [2] was 5.50. The Ki entry in assay [5] is “Not Active”.

Consider LEAD(IV) ACETATE, for which the IC50 entry in assay [1], in assay [2], in assay [3], in assay [4] and in assay [5] was “Not Active” throughout. For the same compound, the Ki result in assay [1], in assay [2], in assay [3], in assay [4] and in assay [5] was “Not Active” each time.

Turning to `CC#C[C@]1(O)CC[C@H]2[C@@H]3CCC4=CC(=O)CCC4=C3[C@@H](c3ccc(N(C)C)cc3)C[C@@]21C` [MIFEPRISTONE], the IC50 result in assay [1], in assay [2], in assay [3], in assay [4] and in assay [5] was “Not Active” throughout. Also, the Ki result in assay [5] is “Not Active”.

Take `Cc1[nH]c(=O)c(C#N)cc1-c1ccncc1` [MILRINONE]: the IC50 entry in assay [1], in assay [2], in assay [3], in assay [4] and in assay [5] was “Not Active” each time. Besides, in assay [5], the Ki result is “Not Active”.

For `CCN(CC)N=O` [N-NITROSODIETHYLAMINE], the IC50 entry in assay [1], in assay [2], in assay [3], in assay [4] and in assay [5] was “Not Active” throughout. Moreover, in assay [5], the Ki result is on record as “Not Active”.

As to `Cc1ccc(S(=O)(=O)NC(=O)NN2CCCCCC2)cc1` [TOLAZAMIDE], the IC50 entry in assay [1], in assay [2], in assay [3], in assay [4] and in assay [5] was “Not Active” in each case. Further, in assay [5], the Ki result is “Not Active”.

Take `CC(O)C(=O)O` (stereo unspecified) [LACTIC ACID]: the IC50 result in assay [1], in assay [2], in assay [3], in assay [4] and in assay [5] was “Not Active” each time. Moreover, the Ki result in assay [5] is reported as “Not Active”.

For the compound `CS(=O)(=O)c1ccc(C2=C(c3ccccc3)C(=O)OC2)cc1` [ROFECOXIB], the IC50 result in assay [1], in assay [2], in assay [3], in assay [4] and in assay [5] was “Not Active” each time. In addition, the Ki result in assay [5] is reported as “Not Active”.

In the case of `CCOC(=O)C1=C(C)NC(C)=C(C(=O)OCC)C1c1ccccc1/C=C/C(=O)OC(C)(C)C` [LACIDIPINE], the IC50 result in assay [1], in assay [2], in assay [3], in assay [4] and in assay [5] was “Not Active” each time. Also, the Ki result in assay [5] is reported as “Not Active”.

For the compound `CC(N)C12CC3CC(CC(C3)C1)C2` (stereo unspecified) [RIMANTADINE], the IC50 entry in assay [1], in assay [2], in assay [3], in assay [4] and in assay [5] was “Not Active” each time. For the same compound, the Ki result in assay [5] is listed as “Not Active”.

Regarding `CC(Cl)(Cl)Cl` [TRICHLOROETHANE], the IC50 result in assay [1], in assay [2], in assay [3], in assay [4] and in assay [5] was “Not Active” in each case. Besides, in assay [5], the Ki result is reported as “Not Active”.
